The test system of one experiment is A375 cells. Kind of experiment: Monocyte adherence to tumor cells under flow conditions (FCS2 perfusion stage incubator). The class given is cell-based, human. How it is done: Human peripheral blood monocytes, isolated by density centrifugation and adherence were labeled with the carbocyanine dye (DiI, C18; Molecular Probes, Eugene, Oreg.). They were passed across adherent soluble fibrin treated or untreated tumor cells at a shear force corresponding to that present in small blood capillaries for 1 h (FIGS. 7A and 7B).
The number of tumor cells and adherent monocytes were counted in the images and leukocyte adherence was expressed as the number of leukocytes per tumor cell.
Lyophilized murine anti-human monoclonal blocking antibodies directed against αLβ2 (clone 25.3) and CD54 (clone 84H10) were obtained from Beckman-Coulter (Miami, Fla.), as were purified immunoglobulin matched isotypic controls (IgG1 (mouse) Clone 679.1Mc7). Blocking monoclonal anti-£\M£]2 (clone ICRF44) was obtained from PharMingen (BD Biosciences, San Jose, Calif.). All antibody inhibition experiments were performed using pre-incubation of target cells with 5 μg antibody/106 cells. Experiments were performed in triplicate wells and the results were expressed as the mean+SD for three separate experiments).
To simulate the fluid shear stresses present in vivo, coverslips containing Calcein AM labeled, adherent A375 were loaded into the FCS2 stage incubator (Bioptechs Inc., Butler, Pa.) and mounted on the stage of a Leica DMIRB inverted fluorescence microscope equipped with a Hamamatsu Color Chilled 3CCD camera (C5810 model) attached to a computer for data acquisition.
The FCS2 incubator is a closed near-laminar flow, temperature-controlled perfusion chamber which facilitates direct observation and scanning of the cells on the coverslip during perfusion with solutions or cell suspensions. It was designed to maintain accurate thermal control and allow high-volume near-laminar flow perfusion. A fluid pathway was formed (Dimensions 0.5 mm×14 mm×25 mm) by separating the microaqueduct slide from the coverslip containing cells with a single silicone gasket with a rectangular bore, generating nearlaminar flow conditions during perfusion. The stage incubator was initially connected to a peristaltic pump on the afferent side using 0.062 inch bore S/P medical grade silicone tubing (Fisher Scientific, Suwanee, Ga.), with a three way in-line tap closed to the incubator inlet. The efferent side was connected to waste. After connection of the electronic temperature control, the coverslips were perfused with RPMI to briefly buffer the cells at 37° C. for fifteen minutes (flow rate of 0.5 ml/min). The inlet was then connected to the tube containing the appropriately treated monocyte suspension (3 mL). The efferent tubing was also connected to the same tube, and Di-I (Gant et al., 1992) labelled monocytes were recirculated across the tumor cells for 1 h, after which, the tubing was set up to the initial configuration and the cells were again washed with RPMI for 10 min to remove unbound monocytes.
Individual still images in five randomly chosen fields of view were captured and stored on the computer. The number of monocytes (red) and tumor cells (green) were counted in each field of view and the mean monocyte/tumor cell ratio was calculated. The wall shear stress was calculated using the momentum balance for a Newtonian fluid. The viscosity of water at 37° C. was used as an approximation of the viscosity of the buffer used (RPMI 1640; 0.007 poise). As described in the following equation, the wall shear stress experienced by the monolayer is equal to: T=3 μQ/2a^2b, where T=wall shear stress, μ=coefficient of viscosity (0.007 Poise), Q=volumetric flow rate (0.0083 cm3/s), a=half channel height (0.025 cm), and b=channel width (1.5 cm). The wall shear rate is given by T/μ. […]

The target of another experiment is T1, fibrinogen (Homo sapiens, UniProt P02679).
T1 construct: purchased American Diagnostica Inc., Greenwich, Conn
T1 sequence (P02679 27-437 isoform P02679-2 limits assumed): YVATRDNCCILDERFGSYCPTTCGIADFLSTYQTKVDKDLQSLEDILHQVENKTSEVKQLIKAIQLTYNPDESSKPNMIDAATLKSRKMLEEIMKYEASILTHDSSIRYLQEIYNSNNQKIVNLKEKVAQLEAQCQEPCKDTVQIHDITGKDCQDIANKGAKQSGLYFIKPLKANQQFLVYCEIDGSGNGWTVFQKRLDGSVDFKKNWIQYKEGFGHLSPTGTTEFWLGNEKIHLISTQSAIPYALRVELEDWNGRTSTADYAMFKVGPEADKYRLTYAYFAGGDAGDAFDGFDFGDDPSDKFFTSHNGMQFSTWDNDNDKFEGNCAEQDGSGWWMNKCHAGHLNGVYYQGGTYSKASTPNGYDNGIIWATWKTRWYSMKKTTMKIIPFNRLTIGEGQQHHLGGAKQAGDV
T1 sequence (P02671 20-629 partner limits assumed): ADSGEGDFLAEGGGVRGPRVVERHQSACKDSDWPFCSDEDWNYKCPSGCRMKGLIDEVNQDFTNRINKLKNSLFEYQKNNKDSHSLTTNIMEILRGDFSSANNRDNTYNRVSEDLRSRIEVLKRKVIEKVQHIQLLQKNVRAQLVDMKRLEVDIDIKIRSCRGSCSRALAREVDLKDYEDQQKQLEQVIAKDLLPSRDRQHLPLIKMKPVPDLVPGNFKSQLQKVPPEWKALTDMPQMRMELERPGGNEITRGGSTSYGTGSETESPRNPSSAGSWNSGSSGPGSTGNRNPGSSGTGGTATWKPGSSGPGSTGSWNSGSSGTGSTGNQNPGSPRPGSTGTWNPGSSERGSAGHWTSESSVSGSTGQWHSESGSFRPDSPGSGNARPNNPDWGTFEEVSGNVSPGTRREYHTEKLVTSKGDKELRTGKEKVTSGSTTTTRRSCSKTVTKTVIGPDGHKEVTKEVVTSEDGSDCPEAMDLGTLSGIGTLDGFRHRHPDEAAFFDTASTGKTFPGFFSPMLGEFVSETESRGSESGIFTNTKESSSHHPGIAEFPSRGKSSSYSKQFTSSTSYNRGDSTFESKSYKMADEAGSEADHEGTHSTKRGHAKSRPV
T1 sequence (P02675 31-491 partner): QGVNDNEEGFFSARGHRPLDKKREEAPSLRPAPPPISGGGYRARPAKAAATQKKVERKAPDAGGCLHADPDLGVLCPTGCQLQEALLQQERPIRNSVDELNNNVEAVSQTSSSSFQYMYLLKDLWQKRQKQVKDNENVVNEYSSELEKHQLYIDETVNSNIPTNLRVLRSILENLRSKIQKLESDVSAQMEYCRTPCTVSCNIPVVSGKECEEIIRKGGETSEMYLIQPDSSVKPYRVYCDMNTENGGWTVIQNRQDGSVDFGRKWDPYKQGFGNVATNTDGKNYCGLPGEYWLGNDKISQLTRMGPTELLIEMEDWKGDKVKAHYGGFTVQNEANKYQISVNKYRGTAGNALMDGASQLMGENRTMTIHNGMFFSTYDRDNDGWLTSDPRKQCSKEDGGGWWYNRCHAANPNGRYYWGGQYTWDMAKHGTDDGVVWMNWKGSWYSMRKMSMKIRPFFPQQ
Kind of experiment: Thrombin induced clotting of purified fibrinogen. The conditions noted are these: fibrinogen 0.5 mg/ml, thrombin 0.125 U/ml, peptide 4 mmol/L, room temperature. The class given is biochemical. The procedure:
Experiments were performed to determine if the specific fibrin(ogen) adherence inhibitors also affected (1) fibrinogen clotting in the presence of thrombin, or (2) normal coagulation in recalcified plasma.
Thrombin (0.625 μl (stock 100 U/ml) was added to RPMI 1640 medium containing 25 μl (stock 10 mg/ml) […] or in the presence of 4 mmol/L specific peptide or peptide combination in a total volume of 1 ml. The tubes were left at room temperature and clotting was determined by observed gelation of the solution every 30 s, and the approximate clotting time was recorded. An additional control was also tested in which the fibrin polymerization inhibitor GPRP-NH2 was added to fibrinogen in the presence of P1-P4 prior to thrombin addition. The tube was left at room temperature to determine if clotting was observed.

Where [1] appears, read: sFn treated with single peptide, incubated with one cell type (P3 tumor cells / P4 monocytes), other cell type untreated.
Setting [2] is: one cell type treated with peptide only (P1 tumor cells / P2 monocytes), the other cell type with sFn.
Setting [3] is: one cell type treated with single peptide then sFn (P1 A375 / P2 monocytes), other cell type with sFn (Bars 4, 5).
Setting [4] is: effector and tumor cells both pre-treated with single component of the sFn mixture.

“Also recorded” adds a separate entry of the source. No end group written: not given here.

For “Gly-Pro-Arg-Pro-amide (GPRP-NH2) [reference compound]”, the “effect on monocyte adherence” value in the experiment on A375 cells (effector and tumor cells both pre-treated with single component of the sFn mixture, listed as GPRP) is “did not significantly inhibit adherence”; with A375 cells (effector and tumor cells both pre-treated with single component of the sFn mixture, listed as GPRPNH2), “no significant (P>0.05 compared to untreated cell adherence) inhibition was observed”. Moreover, the clotting time with fibrinogen is greater than 15 min. Consider “KFGDPLGYEDVIPEADREG (CHAIN peptide comprising the soluble fibrin protein-binding domain in soluble fibin) [Peptide P4]”, for which the “inhibition of monocyte adherence” value was “no inhibition was observed” with A375 cells (sFn pre-treated with P4 and incubated with monocytes, tumor cells incubated with sFn (Bar 7)); “no inhibition was observed” in the experiment with A375 cells (setting [1]). Consider “KVILPRGGSVLVTC (CHAIN peptide comprising amino acids 8-21 on the ICAM-1 first immunoglobulin domain) [Peptide P3]”, for which the “inhibition of monocyte adherence” value with A375 cells (setting [1]) is “little or no inhibition was observed”. Regarding “NNQKIVNLKEKVAQLEA (CHAIN peptide comprising the cell-binding domain in soluble fibin.) [Peptide P1]”, the “effect on monocyte adherence” value with A375 cells (setting [2]) is recorded as “Inhibition was still observed; also recorded: inhibited adherence to a similar level to that of sFn treatment of both cells”. For the same substance, in the experiment with A375 cells (setting [3]), the “inhibition of monocyte adherence” value was “inhibition was still observed”. As for “YKSMKKTTMKIIPFNRLTIF (CHAIN peptide comprising the cell-binding domain in soluble fibin.) [Peptide P2]”, the “effect on monocyte adherence” value with A375 cells (setting [2]) is “Inhibition was also observed; also recorded: inhibited adherence to a similar level to that of sFn treatment of both cells”. In addition, the “inhibition of monocyte adherence” value in the experiment on A375 cells (setting [3]) is reported as “inhibition was still observed”. For the substance fibrinogen [reference compound], in the experiment with A375 cells (setting [4]), the “effect on monocyte adherence” value is on record as “no significant (P>0.05 compared to untreated cell adherence) inhibition was observed; also recorded: did not significantly inhibit adherence”. Same read-out and setting: the entry for thrombin [reference compound] is “no significant (P>0.05 compared to untreated cell adherence) inhibition was observed; also recorded: did not significantly inhibit adherence”.

The values are drawn from patent US9777054B2, “Soluble fibrin inhibitory peptides and uses thereof” (ENSION INC., priority 2006, dated 2017).
